MIC90 data for 13 compounds are collected here from ChEMBL document CHEMBL2095176, “GSK Tuberculosis Screening Data”.

Converted amounts (≈) assume the structure as drawn.

The test system of the assay is Mycobacterium tuberculosis variant bovis BCG. Nature of the assay: microbe, parasite or virus in culture. Type of assay: functional.
As for `CCS(=O)(=O)c1ccc(C(=O)Nc2nc(-c3ccccn3)cs2)cc1`, the MIC90 was determined as 3.7 µM (≈ 1.38 µg/mL). `O=c1oc2ccccc2nc1CS(=O)(=O)c1ccc(Br)cc1` gave an MIC90 of 4.7 µM (≈ 1.79 µg/mL). Next, `COc1ccc(C(=O)Nc2nnc(-c3ccc4c(c3)CCCC4)o2)cc1`: 3 µM (≈ 1.05 µg/mL); `Cc1cc(OCC(=O)Nc2ccccc2)c2cc(Br)ccc2n1`: 2 µM (≈ 0.742 µg/mL). For `O=c1cc(N2CCCNCC2)c(Cl)nn1CCCNS(=O)(=O)c1cccc(-c2ccccc2)c1`, the MIC90 was found to be 4.3 µM (≈ 2.16 µg/mL). The compound `NC(=O)c1csc(-c2cccc(OCCNCCc3cccc(F)c3)c2)n1` had an MIC90 of 2 µM (≈ 0.771 µg/mL).

`Cl.Cl.O=C(Nc1ccc(NC2=NCCN2)cc1)c1ccc(C(=O)Nc2ccc(NC3=NCCN3)cc2)cc1` showed an MIC90 of 0.4 µM. The compound `Cc1ccc2nc(NC(=O)c3cc(C)nc4c3c(C)nn4C(C)C)sc2c1` had an MIC90 of 7.6 µM (≈ 2.88 µg/mL). For the compound `O=C(Nc1nnc(-c2ccccc2)o1)c1ccc(F)cc1`, the MIC90 is 5.8 µM (≈ 1.64 µg/mL). The compound `O=C(CCc1ccsc1)Nc1nc(-c2ccccn2)cs1` displayed an MIC90 of 9.4 µM (≈ 2.96 µg/mL). Compound `CCC1=NN(C(=O)c2ccncc2)C(O)(c2ccncc2)C1` (stereo not drawn) displayed an MIC90 of 6.9 µM (≈ 2.04 µg/mL). `O=C(CCc1nc2ccccc2oc1=O)N[C@@H]1CCC(=O)N[C@H]1c1ccsc1` returned an MIC90 of 6.4 µM (≈ 2.54 µg/mL).

On to `NCCCOc1cccc2c(-c3ccncc3)c(-c3cccc(NC(=O)Nc4ccccc4)c3)nn12`, for which the MIC90 was 7.1 µM (≈ 3.4 µg/mL).
